IC50 and half-life data for 15 molecules are collected here from ChEMBL document CHEMBL4417631, “Oral peptide inhibitors of interleukin-23 receptor and their use to treat inflammatory bowel diseases” (2017).

Series [1] has as its target T1, Interleukin-23 receptor (Homo sapiens, UniProt Q5VWK5).
T1 sequence (Q5VWK5 whole entry): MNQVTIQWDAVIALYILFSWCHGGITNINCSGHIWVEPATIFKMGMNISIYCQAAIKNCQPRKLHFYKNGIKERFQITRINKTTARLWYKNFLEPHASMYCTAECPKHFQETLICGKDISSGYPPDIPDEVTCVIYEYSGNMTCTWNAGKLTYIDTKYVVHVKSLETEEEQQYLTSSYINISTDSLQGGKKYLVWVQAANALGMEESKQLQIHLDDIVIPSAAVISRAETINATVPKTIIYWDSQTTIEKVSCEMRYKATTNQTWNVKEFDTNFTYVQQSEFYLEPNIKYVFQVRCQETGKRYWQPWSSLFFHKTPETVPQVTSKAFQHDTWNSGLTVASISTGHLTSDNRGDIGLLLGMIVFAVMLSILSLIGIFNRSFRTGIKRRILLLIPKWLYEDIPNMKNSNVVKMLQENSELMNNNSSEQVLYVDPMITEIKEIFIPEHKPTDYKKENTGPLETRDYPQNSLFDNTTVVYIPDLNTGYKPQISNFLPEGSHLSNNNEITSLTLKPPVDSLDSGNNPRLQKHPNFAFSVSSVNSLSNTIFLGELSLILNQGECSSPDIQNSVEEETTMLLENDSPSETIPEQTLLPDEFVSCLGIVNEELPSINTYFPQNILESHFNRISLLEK
Description: Inhibition of interleukin-23 binding to human interleukin-23 receptor incubated for 2 hrs by competitive binding ELISA. In general terms: ELISA stands for enzyme-linked immunosorbent assay.

Series [2] is described as follows: Inhibition of interleukin-23 binding to rat interleukin-23 receptor incubated for 2 hrs by competitive binding ELISA.
A short description of series [3]: Half life in simulated gastric fluid at 20 uM by LC-MS/MS analysis. It counts as ADME.
The nature of series [4]: Half life in simulated intestinal fluid at 20 uM by LC-MS/MS analysis. It counts as ADME.
The target of series [5] is T1, Interleukin-23 receptor. Description: Inhibition of interleukin-23 receptor in human DB cells assessed as reduction in IL-23-stimulated STAT3 phosphorylation incubated for 30 mins by HTRF assay. It counts as cell-based. For orientation: In TR-FRET formats the signal depends on donor and acceptor labels being close together.

Molecules are shown by their SMILES. *1 amine or outer side, *2 acyl side, *3 side chain or, on linkers, in order; H or OH if unused. Where a SMILES comes first, the peptide text is derived from it. Bridges are numbered along the chain shown (N, C = ends). [ ]: non-standard residue; d: D form. Abu(4-yl) = O=C([C@H](CC[*:3])N[*:1])[*:2]; 2Nal = N[C@@H](Cc1ccc2ccccc2c1)C(=O)O; αMeK = C[C@](N)(CCCCN)C(=O)O A value given as a limit tells only on which side of the number the result lay.

In general, IC50 refers to the concentration at which inhibition is half-maximal. What is called half-life is how long it takes for the measured level to halve. Read a low half-life as rapid decline. As to `CC(=O)N[C@H]1CCSC[C@@H](C(=O)N[C@@H](Cc2ccc3ccccc3c2)C(=O)N[C@@H](Cc2ccc3ccccc3c2)C(=O)N[C@@](C)(CCCCN)C(=O)N[C@@H](CCC(=O)O)C(=O)N[C@@H](CC(N)=O)C(=O)NCC(N)=O)NC(=O)[C@H](CCC(N)=O)NC(=O)[C@H](Cc2c[nH]c3ccccc23)NC(=O)[C@H]([C@@H](C)O)NC(=O)[C@H](CCC(N)=O)NC1=O` (Ac-[Abu(4-yl)]QTWQC[2Nal][2Nal][αMeK]ENG-NH2; thioether 1-6), the IC50 fell in the range of 10 to 25 nM in series [1] and 25 to 100 nM in series [2]. Moreover, the half-life at 20 µM in series [3] is below 1 h; in series [4], 3 to 6 h.

On to `CC(=O)N[C@H]1CCSC[C@@H](C(=O)N[C@@H](Cc2ccc(OCCN)cc2)C(=O)N[C@@H](Cc2ccc3ccccc3c2)C(=O)NC2(C(=O)N[C@@H](CCC(=O)O)C(=O)N[C@@H](CC(N)=O)C(=O)N[C@@H](CC(N)=O)C(N)=O)CCCC2)NC(=O)[C@H](CCC(N)=O)NC(=O)[C@H](Cc2c[nH]c3ccccc23)NC(=O)[C@H]([C@@H](C)O)NC(=O)[C@H](CCC(N)=O)NC1=O`, for which the half-maximal inhibitory concentration (IC50) in series [5] and in series [2] was below 10 nM each time. The half-life at 20 µM in series [3] was above 6 h; in series [4], 2 to 3 h.

Consider `CC(=O)NCCCC[C@H](NC(=O)C(C)(C)NC(=O)[C@H](Cc1ccc2ccccc2c1)NC(=O)[C@H](Cc1ccc(OCCN)cc1)NC(=O)[C@@H](NC(=O)[C@H](CCC(N)=O)NC(=O)[C@H](Cc1c[nH]c2ccccc12)NC(=O)[C@@H](NC(=O)[C@H](CCC(N)=O)NC(=O)[C@@H](NC(C)=O)C(C)(C)S)[C@@H](C)O)C(C)(C)S)C(=O)N[C@@H](CC(N)=O)C(=O)N[C@@H](CC(N)=O)C(N)=O`, for which the concentration for half-maximal inhibition (IC50) in series [1] and in series [5] was below 10 nM throughout. Further, the figures for the half-life at 20 µM in series [3] and in series [4] were 3 to 6 h and 2 to 3 h, respectively.

Turning to `CC(=O)NCCCC[C@](C)(NC(=O)[C@H](Cc1ccc2ccccc2c1)NC(=O)[C@H](Cc1ccc(OCCNC(C)=O)cc1)NC(=O)[C@@H](NC(=O)[C@H](CCC(N)=O)NC(=O)[C@H](Cc1c[nH]c2ccccc12)NC(=O)[C@@H](NC(=O)[C@H](CNC(C)=O)NC(=O)[C@@H](NC(C)=O)C(C)(C)S)[C@@H](C)O)C(C)(C)S)C(=O)N[C@@H](CCC(=O)O)C(=O)N[C@@H](CC(N)=O)C(=O)NCC(N)=O`, the half-inhibitory concentration (IC50) in series [1] was 10 to 25 nM; in series [5], below 10 nM. The half-life at 20 µM in series [3] and in series [4] was above 6 h each time.

`CC(=O)NCCCC[C@H](NC(=O)[C@](C)(CCCCNC(C)=O)NC(=O)[C@H](Cc1ccc2ccccc2c1)NC(=O)[C@H](Cc1ccc(OCCNC(C)=O)cc1)NC(=O)[C@@H](NC(=O)[C@H](CCC(N)=O)NC(=O)[C@H](Cc1c[nH]c2ccccc12)NC(=O)[C@@H](NC(=O)[C@H](CCC(N)=O)NC(=O)[C@@H](NC(C)=O)C(C)(C)S)[C@@H](C)O)C(C)(C)S)C(=O)N[C@@H](CC(N)=O)C(=O)N[C@@H](CC(N)=O)C(N)=O`: the half-inhibitory concentration (IC50) in series [1] and in series [5] was below 10 nM in each case. Further, the half-life at 20 µM in series [3] and in series [4] was above 6 h throughout.

Consider `CC(=O)N[C@H]1CCSC[C@@H](C(=O)N[C@@H](Cc2ccc(OCCN)cc2)C(=O)N[C@@H](Cc2ccc3ccccc3c2)C(=O)NC2(C(=O)N[C@@H](CCC(=O)O)C(=O)N[C@@H](CC(N)=O)C(=O)N[C@@H](CC(N)=O)C(N)=O)CCNCC2)NC(=O)[C@H](CCC(N)=O)NC(=O)[C@H](Cc2c[nH]c3ccccc23)NC(=O)[C@H]([C@@H](C)O)NC(=O)[C@H](CCC(N)=O)NC1=O`, for which the IC50 in series [5] and in series [2] was below 10 nM each time. Besides, the half-life at 20 µM in series [3] and in series [4] was above 6 h throughout.

Turning to `CC(=O)NCCCC[C@H](NC(=O)C(C)(C)NC(=O)[C@H](Cc1cccc2ccccc12)NC(=O)[C@H](Cc1ccc(OCCN)cc1)NC(=O)[C@@H]1CSCC[C@H](NC(C)=O)C(=O)N[C@@H](CCC(N)=O)C(=O)N[C@@H]([C@@H](C)O)C(=O)N[C@@H](Cc2c[nH]c3ccccc23)C(=O)N[C@@H](CCC(N)=O)C(=O)N1)C(=O)N[C@@H](CC(N)=O)C(=O)NCC(N)=O`, the concentration for half-maximal inhibition (IC50) in series [1] was 25 to 100 nM; in series [5], 10 to 25 nM. Also, the half-life at 20 µM in series [3] and in series [4] was above 6 h throughout.

Consider `CC(=O)NCCCC[C@](C)(NC(=O)[C@H](Cc1ccc2ccccc2c1)NC(=O)[C@H](Cc1ccc(OCCNC(C)=O)cc1)NC(=O)[C@@H](NC(=O)[C@H](CCC(N)=O)NC(=O)[C@H](Cc1c[nH]c2ccccc12)NC(=O)[C@@H](NC(=O)[C@H](CCC(N)=O)NC(=O)[C@@H](NC(C)=O)C(C)(C)S)[C@@H](C)O)C(C)(C)S)C(=O)N[C@@H](CCC(=O)O)C(=O)N[C@@H](CC(N)=O)C(=O)N[C@@H](C)C(N)=O`, for which the IC50 in series [1] was 10 to 25 nM; in series [5], below 10 nM. The half-life at 20 µM in series [3] and in series [4] was above 6 h each time.

Regarding `CC(=O)NCCCC[C@](C)(NC(=O)[C@H](Cc1ccc2ccccc2c1)NC(=O)[C@H](Cc1ccc(OCCNC(C)=O)cc1)NC(=O)[C@@H](NC(=O)[C@H](CCC(N)=O)NC(=O)[C@H](Cc1c[nH]c2ccccc12)NC(=O)[C@@H](NC(=O)[C@H](CCC(N)=O)NC(=O)[C@@H](NC(C)=O)C(C)(C)S)[C@@H](C)O)C(C)(C)S)C(=O)N[C@@H](CCC(=O)O)C(=O)N[C@@H](CC(N)=O)C(=O)NCC(N)=O`, the IC50 in series [1] is 10 to 25 nM; in series [5] it was below 10 nM. Moreover, the half-life at 20 µM in series [3] was above 6 h; in series [4], 3 to 6 h.

In the case of `CC(=O)NCCCC[C@H](NC(=O)[C@](C)(CCCCNC(C)=O)NC(=O)[C@H](Cc1ccc2ccccc2c1)NC(=O)[C@H](Cc1ccc(OCCNC(C)=O)cc1)NC(=O)[C@@H](NC(=O)[C@H](CCC(N)=O)NC(=O)[C@H](Cc1c[nH]c2ccccc12)NC(=O)[C@@H](NC(=O)[C@H](CCC(N)=O)NC(=O)[C@@H](NC(C)=O)C(C)(C)S)[C@@H](C)O)C(C)(C)S)C(=O)N[C@@H](CC(N)=O)C(=O)NCC(N)=O`, the IC50 in series [1] and in series [5] was below 10 nM throughout. Besides, the half-life at 20 µM in series [3] and in series [4] was above 6 h each time.

Consider `CC(=O)N[C@H]1CCSC[C@@H](C(=O)N[C@@H](Cc2ccc(OCCN)cc2)C(=O)N[C@@H](Cc2ccc3ccccc3c2)C(=O)N[C@@](C)(CCCCN)C(=O)N[C@@H](CCCCNC(=O)c2ccccc2)C(=O)N[C@@H](CC(N)=O)C(=O)NCC(N)=O)NC(=O)[C@H](CCC(N)=O)NC(=O)[C@H](Cc2c[nH]c3ccccc23)NC(=O)[C@H]([C@@H](C)O)NC(=O)[C@H](CCC(N)=O)NC1=O`, for which the IC50 in series [1] and in series [5] was below 10 nM throughout. Further, the half-life at 20 µM in series [3] is above 6 h; in series [4] it was 3 to 6 h.

Turning to `CC(=O)NCCOc1ccc(C[C@H](NC(=O)[C@@H](NC(=O)[C@H](CCC(N)=O)NC(=O)[C@H](Cc2c[nH]c3ccccc23)NC(=O)[C@@H](NC(=O)[C@H](CCC(N)=O)NC(=O)[C@@H](NC(C)=O)C(C)(C)S)[C@@H](C)O)C(C)(C)S)C(=O)N[C@@H](Cc2ccc3ccccc3c2)C(=O)N[C@@](C)(CC(C)C)C(=O)N[C@@H](CCC(N)=O)C(=O)N[C@@H](CC(N)=O)C(=O)N[C@@H](CC(N)=O)C(N)=O)cc1`, the 50% inhibitory concentration (IC50) in series [1] and in series [5] was below 10 nM in each case. The half-life at 20 µM in series [3] and in series [4] was above 6 h in each case.

Regarding `CC(=O)NCCCC[C@H](NC(=O)C(C)(C)NC(=O)[C@H](Cc1ccc2ccccc2c1)NC(=O)[C@H](Cc1ccc(OCCNC(C)=O)cc1)NC(=O)[C@@H](NC(=O)[C@H](CCC(N)=O)NC(=O)[C@H](Cc1c[nH]c2ccccc12)NC(=O)[C@@H](NC(=O)[C@H](CCC(N)=O)NC(=O)[C@@H](NC(C)=O)C(C)(C)S)[C@@H](C)O)C(C)(C)S)C(=O)N[C@@H](CC(N)=O)C(=O)N[C@@H](CCC(N)=O)C(N)=O`, the half-inhibitory concentration (IC50) in series [1] and in series [5] was below 10 nM throughout. The half-life at 20 µM in series [3] and in series [4] was above 6 h throughout.

As for `CC(=O)NCCCC[C@H](NC(=O)[C@](C)(CCCN)NC(=O)[C@H](Cc1ccc2ccccc2c1)NC(=O)[C@H](Cc1ccc(OCCN)cc1)NC(=O)[C@@H]1CSCC[C@H](NC(C)=O)C(=O)N[C@@H](CCC(N)=O)C(=O)N[C@@H]([C@@H](C)O)C(=O)N[C@@H](Cc2c[nH]c3ccccc23)C(=O)N[C@@H](CCC(N)=O)C(=O)N1)C(=O)N[C@@H](CC(N)=O)C(=O)NCC(N)=O`, the IC50 in series [1] and in series [5] was below 10 nM in each case. In addition, the half-life at 20 µM in series [3] and in series [4] was 3 to 6 h in each case.

For `CC(=O)N[C@H]1CCSC[C@@H](C(=O)N[C@@H](Cc2ccc(OCCN)cc2)C(=O)N[C@@H](Cc2c[nH]c3ccccc23)C(=O)N[C@@](C)(CC(C)C)C(=O)N[C@@H](CCC(=O)O)C(=O)N[C@@H](CC(N)=O)C(=O)NCC(N)=O)NC(=O)[C@H](CCC(N)=O)NC(=O)[C@H](Cc2c[nH]c3ccccc23)NC(=O)[C@H]([C@@H](C)O)NC(=O)[C@H](CCC(N)=O)NC1=O`, the half-inhibitory concentration (IC50) in series [1] and in series [5] was below 10 nM each time. Moreover, the half-life at 20 µM in series [3] was 3 to 6 h; in series [4], above 6 h.
